Data: the NIST ThermoML archive (doi:10.1021/je030132i)
± gives the expanded uncertainty stated by the source.

Assay: xn = mol fraction of the nth substance listed
Conditions: 101.3 kPa, Liquid; for viscosity: Capillary tube (Ostwald / Ubbelohde) method; for mass density: Vibrating tube method

CC(O)CNCC(C)O (configuration not stated) [N-(2-hydroxypropyl)-2-hydroxy-1-propanamine] + O
Conditions | mass density [kg/m3] | viscosity [mPa·s]
298.15 K, x1 = 0.02 | 1005.22 ± 0.09 | 1.645 ± 0.01
298.15 K, x1 = 0.0498 | 1015.93 ± 0.11 | 3.723 ± 0.023
298.15 K, x1 = 0.0701 | 1021.72 ± 0.13 | 6.06 ± 0.04
298.15 K, x1 = 0.1001 | 1027.13 ± 0.16 | 11.55 ± 0.07
298.15 K, x1 = 0.1999 | 1030.9 ± 0.25 | 55.69 ± 0.28
298.15 K, x1 = 0.3006 | 1027.13 ± 0.35 | 166.1 ± 3.5
298.15 K, x1 = 0.3963 | 1022.42 ± 0.44 | 338.7 ± 11
298.15 K, x1 = 0.5012 | 1017.79 ± 0.54 | 613 ± 26
298.15 K, x1 = 0.5957 | 1014.09 ± 0.64 | 861 ± 42
298.15 K, x1 = 0.7034 | 1010.66 ± 0.74 | 1142 ± 61
298.15 K, x1 = 0.8029 | 1008.07 ± 0.83 | 1326 ± 74
298.15 K, x1 = 0.9016 | 1006.28 ± 0.93 | 1478 ± 85
313.15 K, x1 = 0.02 | 999.64 ± 0.09 | 1.112 ± 0.007
313.15 K, x1 = 0.0498 | 1008.66 ± 0.11 | 2.218 ± 0.014
313.15 K, x1 = 0.0701 | 1013.2 ± 0.13 | 3.335 ± 0.021
313.15 K, x1 = 0.1001 | 1017.4 ± 0.16 | 5.56 ± 0.04
313.15 K, x1 = 0.1999 | 1019.77 ± 0.25 | 20.63 ± 0.12
313.15 K, x1 = 0.3006 | 1016.15 ± 0.35 | 46.9 ± 0.3
313.15 K, x1 = 0.3963 | 1011.45 ± 0.44 | 87.7 ± 1
313.15 K, x1 = 0.5012 | 1006.84 ± 0.54 | 139.1 ± 2.6
313.15 K, x1 = 0.5957 | 1003.2 ± 0.63 | 184.6 ± 4.3
313.15 K, x1 = 0.7034 | 999.62 ± 0.73 | 229.9 ± 6.2
313.15 K, x1 = 0.8029 | 997.1 ± 0.83 | 264.6 ± 7.8
313.15 K, x1 = 0.9016 | 995.03 ± 0.92 | 290.7 ± 9.1
318.65 K, x1 = 0.02 | 997.52 ± 0.09 | 0.992 ± 0.006
318.65 K, x1 = 0.0498 | 1006.43 ± 0.11 | 1.914 ± 0.012
318.65 K, x1 = 0.0701 | 1010.34 ± 0.13 | 2.776 ± 0.017
318.65 K, x1 = 0.1001 | 1014 ± 0.16 | 4.6 ± 0.03
318.65 K, x1 = 0.1999 | 1015.54 ± 0.25 | 15.21 ± 0.09
318.65 K, x1 = 0.3006 | 1011.9 ± 0.35 | 32.42 ± 0.2
318.65 K, x1 = 0.3963 | 1007.24 ± 0.44 | 58.7 ± 0.4
318.65 K, x1 = 0.5012 | 1002.82 ± 0.54 | 88.1 ± 1
318.65 K, x1 = 0.5957 | 999.15 ± 0.63 | 114.5 ± 1.8
318.65 K, x1 = 0.7034 | 995.55 ± 0.73 | 140 ± 2.7
318.65 K, x1 = 0.8029 | 993.04 ± 0.82 | 159.5 ± 3.4
318.65 K, x1 = 0.9016 | 990.99 ± 0.92 | 174.2 ± 4
318.65 K, x1 = 1 | 988.22 ± 1 | 186.6 ± 4.6
323.15 K, x1 = 0.02 | 995.02 ± 0.09 | 0.907 ± 0.006
323.15 K, x1 = 0.0498 | 1003.09 ± 0.11 | 1.684 ± 0.011
323.15 K, x1 = 0.0701 | 1006.95 ± 0.13 | 2.408 ± 0.015
323.15 K, x1 = 0.1001 | 1010.46 ± 0.16 | 3.78 ± 0.02
323.15 K, x1 = 0.1999 | 1012.04 ± 0.25 | 12.06 ± 0.07
323.15 K, x1 = 0.3006 | 1008.24 ± 0.35 | 24.56 ± 0.15
323.15 K, x1 = 0.3963 | 1003.75 ± 0.44 | 42.8 ± 0.3
323.15 K, x1 = 0.5012 | 999.39 ± 0.53 | 63.37 ± 0.46
323.15 K, x1 = 0.5957 | 995.71 ± 0.62 | 79.93 ± 0.82
323.15 K, x1 = 0.7034 | 992.23 ± 0.73 | 96.22 ± 1.3
323.15 K, x1 = 0.8029 | 989.58 ± 0.82 | 108.7 ± 1.7
323.15 K, x1 = 0.9016 | 987.51 ± 0.91 | 118 ± 2
323.15 K, x1 = 1 | 984.9 ± 1 | 125.7 ± 2.3
333.15 K, x1 = 0.02 | 989.76 ± 0.09 | 0.733 ± 0.005
333.15 K, x1 = 0.0498 | 996.93 ± 0.11 | 1.355 ± 0.009
333.15 K, x1 = 0.0701 | 1000.34 ± 0.13 | 1.816 ± 0.011
333.15 K, x1 = 0.1001 | 1003.16 ± 0.16 | 2.719 ± 0.017
333.15 K, x1 = 0.1999 | 1004.03 ± 0.25 | 7.5 ± 0.05
333.15 K, x1 = 0.3006 | 1000.17 ± 0.34 | 14.15 ± 0.09
333.15 K, x1 = 0.3963 | 995.77 ± 0.43 | 22.89 ± 0.15
333.15 K, x1 = 0.5012 | 991.52 ± 0.53 | 32.12 ± 0.23
333.15 K, x1 = 0.5957 | 987.88 ± 0.62 | 39.31 ± 0.31
333.15 K, x1 = 0.7034 | 984.45 ± 0.72 | 46.32 ± 0.4
333.15 K, x1 = 0.8029 | 981.79 ± 0.81 | 51.38 ± 0.45
333.15 K, x1 = 0.9016 | 979.72 ± 0.91 | 55.03 ± 0.53
333.15 K, x1 = 1 | 977.3 ± 1 | 57.99 ± 0.62
343.15 K, x1 = 0.02 | 983.93 ± 0.09 | 0.621 ± 0.004
343.15 K, x1 = 0.0498 | 990.37 ± 0.11 | 1.061 ± 0.007
343.15 K, x1 = 0.0701 | 993.22 ± 0.13 | 1.412 ± 0.009
343.15 K, x1 = 0.1001 | 995.55 ± 0.16 | 2.042 ± 0.013
343.15 K, x1 = 0.1999 | 995.78 ± 0.25 | 5.05 ± 0.03
343.15 K, x1 = 0.3006 | 991.86 ± 0.34 | 8.7 ± 0.06
343.15 K, x1 = 0.3963 | 987.44 ± 0.43 | 13.34 ± 0.09
343.15 K, x1 = 0.5012 | 983.33 ± 0.53 | 17.88 ± 0.13
343.15 K, x1 = 0.5957 | 979.75 ± 0.61 | 21.19 ± 0.17
343.15 K, x1 = 0.7034 | 976.35 ± 0.71 | 24.42 ± 0.21
343.15 K, x1 = 0.8029 | 973.95 ± 0.81 | 26.64 ± 0.25
343.15 K, x1 = 0.9016 | 971.72 ± 0.9 | 28.29 ± 0.29
343.15 K, x1 = 1 | 969.58 ± 0.99 | 29.55 ± 0.33
